Laboratory results published in publication PMC11203978, “Discovery of Di(het)arylmethane and Dibenzoxanthene Derivatives as Potential Anticancer Agents” (International Journal of Molecular Sciences, 2024).

Experiments:
Type in all cases: cell-based, human
M-HeLa = test: MTT cytotoxicity, M-HeLa; details: M-HeLa
Source text: (§1) Cells and Materials. For the experiments, we used tumor cell cultures M-HeLa clone 11 (epithelioid carcinoma of the cervix, subline HeLa, clone M-HeLa), HuTu 80, human duodenal adenocarcinoma, Hep-2, human epithelial cells, SH-SY5Y, human neuroblast-like cells, A549, human lung adenocarcinoma, PA-1, human ovarian teratocarcinoma and MCF-7, a human mammary ductal adenocarcinoma from the collection of the Institute of Cytology, Russian Academy of Sciences (St. Petersburg, Russia); human liver cells (Chang liver) were from the collection and the Research Institute of Virology of the Russian Academy of Medical Sciences (Moscow, Russia).
(§2) MTT Assay. The cytotoxic effect on cells was determined using the colorimetric method of cell proliferation—the MTT test. NADP-H-dependent cellular oxidoreductase enzymes can, under certain conditions, reflect the number of viable cells. These enzymes reduce the tetrazolium dye (MTT) 3-(4,5-dimethylthiazol-2-yl)-2,5-diphenyl-tetrazolium bromide to insoluble blue-violet formazan, which crystallizes inside the cell. The amount of formed formazan is proportional to the number of cells with active metabolism. Cells were seeded on a 96-well Nunc plate at a concentration of 5 × 10^3 cells per well in a volume of 100 μL of medium and cultured in a CO2 incubator at 37 °C until a monolayer was formed. After the nutrient medium was removed, 100 µL of the test drug solutions at the given dilutions were added to the wells, which were prepared directly in the nutrient medium with the addition of 5% DMSO to improve solubility. After 48 h of incubation of the cells with the tested compounds, the nutrient medium was removed from the plates and 100 µL of the nutrient medium without serum with MTT at a concentration of 0.5 mg/mL was added and incubated for 4 h at 37 °C. Formazan crystals were added 100 µL of DMSO to each well. Optical density was recorded at 540 nm on an Invitrologic microplate reader (Novosibirsk, Russia). The experiments for all compounds were repeated three times.
(§3) Statistical analysis. The IC50 values were calculated using the MLA–Quest Graph™ IC50 Calculator (AAT Bioquest, Inc., Sunnyvale, CA, USA), 14 February 2022. Statistical analysis was performed with the Mann–Whitney test (p < 0.05). Tabular and graphical data contain averages and standard error.

Chang Liver = test: MTT cytotoxicity, normal Chang liver cells; details: Homo sapiens, Chang liver, 48 h incubation, read-out: IC50 (µM) Normal Cell Line Chang Liver
Source text: as §1, §2, §3

HuTu 80 cells = test: Induction of apoptosis, flow cytometry (annexin V-Alexa Fluor 647 / propidium iodide); details: IC50/2 and IC50, 24 h
Procedure: The ability of the new compounds, proposed as antitumor agents, to induce cell death via apoptosis is a critical feature for their potential use in therapy. The apoptosis-inducing effects of lead compounds were investigated using flow cytometry at IC50/2 and IC50 concentrations on the HuTu 80 cell line (Figure 6A).
Cell Culture. HuTu 80 cells at 1 × 10^6 cells/well in a final volume of 2 mL were seeded into six-well plates. After 48 h of incubation, various concentrations of lead compounds were added to wells.
Cell Apoptosis Analysis. The cells were harvested at 2000 rpm for 5 min and were then washed twice with ice-cold PBS, and resuspended in binding buffer. Next, the samples were incubated with 5 μL of annexin V-Alexa Fluor 647 (Sigma-Aldrich, St Louis, MO, USA) and 5 μL of propidium iodide for 15 min at room temperature in the dark. Finally, the cells were analyzed using flow cytometry (Guava easy Cyte, MERCK, Rahway, NJ, USA) within 1 h. The experiments were repeated three times.

PA-1 cells = test: Cell glycolysis, Seahorse XF Glycolysis Stress Test (ECAR); details: 100 μM
Source text: To investigate whether the cytotoxicity of 5a and 6a is related to their effects on metabolism, we quantified their inhibition of glycolysis in human ovarian teratocarcinoma PA-1 cells using Seahorse technology, which allows the rapid assessment of glycolytic metabolism in cells using a proton efflux rate assay (ECAR). It is well known that glucose in cells is converted to pyruvate and then either to lactate in the cytoplasm or CO2 and water in the mitochondria. As glucose is converted to lactate, protons are released into the extracellular environment to maintain intracellular pH homeostasis. This extracellular acidification is measured in real time and provides insight into the rate of glycolytic proton efflux. PA-1 cells are used for the study of glycolysis since a pronounced deregulation of cellular energy is observed in the case of ovarian cancer, mediating the growth, invasion and migration of tumor cells.
Measuring ECAR under these conditions provides the parameters presented in Figure 9c,d: the level of glycolysis and glycolytic capacity.
Determination of cell glycolysis. Cell glycolysis was measured with Seahorse XF Glycolysis Stress Test Kit and Seahorse Bioscience XF96 Extracellular Flux Analyzer (Agilent Technology, Boston, MA, USA). […] ECAR levels were examined and analyzed using Seahorse Bioscience XF96 Extracellular Flux Analyzer. […]

Compound: O=C(C[P+](c1ccccc1)(c1ccccc1)c1ccccc1)NCCC1c2c(ccc3ccccc23)Oc2ccc3ccccc3c21 [Compound 6a]
- IC50 (M-HeLa; Homo sapiens, MTT, 48 h incubation, read-out: IC50 (µM) Cancer Cell Lines M-HeLa): 11 ± 8.7 µM
- times more effective than the reference drug sorafenib (M-HeLa): three times more effective
- IC50 (Chang Liver): 41 ± 3.5 µM
- apoptosis-inducing effect (in words) (HuTu 80 cells): dose-dependent apoptosis
- glycolysis (ECAR) at maximum concentration (in words) (PA-1 cells): completely blocking glycolysis
